Values quoted from earlier work as cited in US20230181675A1, “NOVEL FORMUATIONS” (ARECOR LIMITED, priority 2020, published 2023).

Settings: at 25° C.

logK metal binding stability constant with respect to zinc ion binding	SMILES
4.93	O=C(O)CC(O)(CC(=O)O)C(=O)O [Citrate]
12.6	O=C(O)CN(CCOCCOCCN(CC(=O)O)CC(=O)O)CC(=O)O [EGTA, ethyleneglycoltetraacetate]

SMILES	logK metal binding stability constant with respect to zinc ion binding
O=C(O)CN(CCN(CC(=O)O)CC(=O)O)CC(=O)O [EDTA, ethylenediaminetetraacetate]	14.5
